From patent US9440967B2, “1H-pyrrolo [2, 3 -B] pyridine derivatives and their use as radical quenchers” (Arizona Board of Regents on Behalf of Arizona State …, priority 2012, dated 2016)
Structures can show the parent of a compound that is named as a salt.

Tested on: CEM leukemia cells
Experiment: Lipid peroxidation, C11-BODIPY581/591 oxidation in cell culture (FACS)
Type: cell-based, Human
Conditions: CEM cells pretreated 16 h with 2.5 and 5 μM compound, then 5 mM DEM 90 min; compared with α-tocopherol; FIG. 2
Procedure: FIG. 2. Comparison of the lipid peroxidation in CEM leukemia cells depleted of glutathione detected by utilizing the oxidation-sensitive fatty acid probe C-11 BODIPY^581/591 using flow cytometry. Increased C-11 BODIPY-green fluorescence (oxidized form), a measure of intracellular lipid peroxidation, was determined by increasing the geometric mean fluorescence intensity (GMFI) of C-11 BODIPY-green relative to the untreated control. A bar graph representing the percentage of the geometric mean fluorescence intensity (GMFI) of C-11 BODIPY-green fluorescence relative to a treated control is shown. Data are expressed as the mean±SEM (n=3). α-TOH is α-tocopherol.
Lipid peroxidation in CEM leukemia cells was detected by utilizing the oxidant-sensitive lipophilic probe C11 BODIPY^581/591. Briefly, CEM cells (5×10^5 cell/mL) were treated with the test compounds at final concentrations of 2.5 and 5 μM, and incubated at 37° C. for 16 h in a humidified atmosphere containing 5% CO2 in air. Cells were treated with 1 μMC11 BODIPY^581/591 in phenol red-free RPMI-1640 media and incubated at 37° C. in the dark for 30 minutes. The cells were washed twice with phosphate buffered saline and oxidative stress was induced with 5 mM DEM in phenol red-free RPMI-1640 media for 90 minutes. Treated cells were collected by centrifugation at 300×g for 3 minutes and then washed twice with phosphate buffered saline. Cells were re-suspended in 250 μL of phosphate buffered saline and were analyzed by FACS (FACS Calibur flow cytometer, Becton Dickinson) to monitor the change in intensity of the C11 BODIPY^581/591-green (oxidized) fluorescence signal. A total of 10000 events were recorded for each sample and analyzed with the CellQuest software (BD Biosciences). The results were verified by repeating the experiments in duplicate. Results are expressed as the relative percentage of treated control (DEM).

Compound | protection against lipid (membrane) peroxidation (C11-BODIPY-green fluorescence)
CCCCCCCCCCc1nc2c(c(C)c1O)CCN2C [Compound 1b, 1,4-Dimethyl-6-decyl-2,3-dihydro-1H-pyrrolo[2,3-b]pyridin-5-ol trifluoro acetic acid salt] | significantly better protection than was achieved with α-tocopherol
CCCCCCCCCCc1nc2c(c(C)c1OC(C)=O)CCN2C [Compound 2b, 1,4-Dimethyl-6-decyl-2,3-dihydro-1H-pyrrolo[2,3-b]pyridin-5-yl acetate] | results comparable to α-TOH
